Where “and” joins values, the source holds several entries; their conditions need not be identical. Identical values can stand only once. Bounds are passed on as bounds.

The subject of data set [1] is Rattus norvegicus. The following applies: for LC50 / LD50: acute.
The test system of another data set is Oryctolagus sp. The following applies: for LD50: acute.
Data set [2] has as its system Rattus norvegicus. As to conditions: short-term; duration: 28 days; oral; gavage; M/F; Fischer 344; Deaths + Clinical Observation: Salivation + Body Weight Changes: Weight gain decrease + Food Consumption: decrease + Blood Chemistry: GPT ….
The mark [3] stands for this setting: subchronic, duration: 13 weeks, oral, gavage, Sprague-Dawley.

Turning to `O=C(Cl)CCl` [Chloroacetyl chloride], the LC50 with Rattus norvegicus [1] (inhalation, Fischer 344) was determined as 3050 mg/m3; in the data set on Mus musculus (acute, inhalation) it was 11100 mg/m3. In addition, the LD50 was ≥ 1260 mg/kg and ≤ 2500 mg/kg in the data set on Rattus norvegicus [1] (oral); 207 mg/kg in the data set on Rattus norvegicus [1] (oral, Sprague-Dawley); ≥ 316 mg/kg and ≤ 501 mg/kg in the data set on Oryctolagus sp. (dermal, semiocclusive, New Zealand). Further, the LOAEL in the data set with Rattus norvegicus [1] (short-term, duration: 4 weeks, inhalation, Fischer 344) amounted to 2.31 mg/m3.
Consider `C=CCOC(=O)OCCOCCOC(=O)OCC=C` [Diallyl diglycol carbonate], for which the LD50 with Rattus norvegicus [1] (oral, gavage, Crl) came out at 349 mg/kg; in the data set with Rattus norvegicus [1] (oral, gavage, Fischer 344) it was 515 mg/kg; in the data set on Mus musculus (acute, injection, Intraperitoneal, albino), 269 mg/kg. The molecule further came in with an NOAEL in the data set with Oryctolagus sp. (reproduction developmental, duration: 6 days, dermal, New Zealand) of 0.1 mg/kg-day.
Take `C1=CC2C3C=CC(C3)C2C1` (stereo not drawn) [Dicyclopentadiene]: the NOEL with Rattus norvegicus [2] was 8 mg/kg-day. The NOAEL in the data set on Rattus norvegicus [1] (developmental, duration: 10 days, oral, diet, Sprague-Dawley) was determined as 750 ppm; with Rattus norvegicus [1] (developmental, duration: 10 days, oral, gavage, Sprague-Dawley), 50 mg/kg-day; with Rattus norvegicus [1] (reproduction developmental, duration: 10 days, oral, diet, F, Sprague-Dawley), 750 ppm; with Rattus norvegicus [1] (reproduction developmental, oral, diet, Sprague-Dawley, generation: F0), 750 ppm; in the data set on Rattus norvegicus [1] (reproduction developmental, oral, diet, Sprague-Dawley, generation: F1), 750 ppm; with Rattus norvegicus [1] (reproduction developmental, oral, diet, Sprague-Dawley, generation: F2), 750 ppm. The NOAEL was 20 mg/kg-day in the data set with Rattus norvegicus [1] (reproduction developmental, oral, gavage, F, Sprague-Dawley); 100 mg/kg-day in the data set on Rattus norvegicus [1] (reproduction developmental, oral, gavage, M, Sprague-Dawley); 20 mg/kg-day with Rattus norvegicus [1] (reproduction developmental, oral, gavage, Sprague-Dawley, generation: F1); 25 mg/kg-day in the data set on Oryctolagus sp. (reproduction developmental, duration: 14 days, oral, gavage, F, New Zealand).
For the molecule `CCOC(=O)CCl` [Ethyl chloroacetate], the LD50 in the data set with Rattus norvegicus [1] (dermal) was 161 mg/kg; in the data set with Mus musculus (acute, injection, subcutaneous), 250 mg/kg; in the data set with Mus musculus (acute, oral), 350 mg/kg; in the data set on Oryctolagus sp. (dermal), 335 mg/kg and 230 mg/kg; in the data set with Oryctolagus sp. (dermal, occlusive, New Zealand) it was 255 mg/kg.
As for `CC(C)CCCCCCCOP(OCCCCCCCC(C)C)OCCCCCCCC(C)C` [Isodecyl phosphite], in the data set on Rattus norvegicus [1] (Inhalation, Sherman Wistar), the LC50 was more than 12.6 µg/mL. The LD50 with Rattus norvegicus [1] (oral, gavage, Sherman Wistar) was more than 5000 mg/kg; in the data set with Oryctolagus sp. (dermal, New Zealand), more than 5000 mg/kg. In addition, the NOAEL in the data set with Rattus norvegicus [1] (reproduction developmental, duration: 8 weeks, oral, gavage, Sprague-Dawley, generation: F0) was not below 1000 mg/kg-day; in the data set with Rattus norvegicus [1] (reproduction developmental, duration: 8 weeks, oral, gavage, Sprague-Dawley, generation: F1), not below 1000 mg/kg-day.
`CC(C)CCC(C)Nc1ccc(NC(C)CCC(C)C)cc1` (stereo not drawn) [N,N'-Bis(1,4-dimethylpentyl)-4-phenylenediamine] yielded an LC50 in the data set on Rattus norvegicus [1] (inhalation) of more than 400 mg/m3. The LD50 is 730 mg/kg in the data set on Rattus norvegicus [1] (oral, gavage, Sprague-Dawley) and more than 3160 mg/kg in the data set with Oryctolagus sp. (dermal, occlusive, New Zealand). The LOAEL in the data set on Rattus norvegicus [1] (chronic, duration: 22 weeks, inhalation) came out at 100 mg/m3. Further, the NOAEL in the data set on Rattus norvegicus [1] (developmental, duration: 10 days, oral, gavage, Charles River CD Albino) is 150 mg/kg-day; in the data set on Rattus norvegicus [1] (reproduction developmental, duration: 23 weeks, oral, diet, generation: F0), 30 ppm; in the data set on Rattus norvegicus [1] (reproduction developmental, duration: 23 weeks, oral, diet, generation: F1) it was 30 ppm; in the data set on Rattus norvegicus [1] (reproduction developmental, duration: 23 weeks, oral, diet, generation: F2), 30 ppm; in the data set on Rattus norvegicus [1] (reproduction developmental, duration: 10 days, oral, gavage, F, Charles River CD Albino), 25 mg/kg-day; with Rattus norvegicus [1] (subchronic, duration: 30 days, oral, diet, F, Sprague-Dawley), 28.8 mg/kg-day. Also, the no-observed-adverse-effect level (NOAEL) with Rattus norvegicus [1] (subchronic, duration: 30 days, oral, diet, M, Sprague-Dawley) was determined as 9.6 mg/kg-day; in the data set with Rattus norvegicus [1] (subchronic, duration: 90 days, oral, diet, M, Sprague-Dawley), 9.6 mg/kg-day.
Take `CN1C(=O)c2ccc([N+](=O)[O-])cc2C1=O` [N-Methyl-4-nitrophthalimide]: the LD50 is more than 36 mg/L with Rattus norvegicus [1] (inhalation, whole body, Sprague-Dawley); 2800 mg/kg in the data set on Rattus norvegicus [1] (oral, gavage, Sprague-Dawley); more than 2000 mg/kg in the data set on Oryctolagus sp. (dermal, New Zealand). Also, the NOAEL in the data set on Rattus norvegicus [1] (developmental, duration: 9 days, oral, gavage, Sprague-Dawley) was 50 mg/kg-day; with Rattus norvegicus [1] (reproduction developmental, duration: 4 weeks, oral, gavage, Sprague-Dawley), more than 25 mg/kg-day; in the data set on Rattus norvegicus [1] (reproduction developmental, duration: 4 weeks, oral, gavage, Sprague-Dawley, generation: F0), 2.5 mg/kg-day; in the data set on Rattus norvegicus [1] (reproduction developmental, duration: 4 weeks, oral, gavage, Sprague-Dawley, generation: F1) it was more than 25 mg/kg-day; in the data set with Rattus norvegicus [1] (reproduction developmental, duration: 9 days, oral, gavage, F, Sprague-Dawley), 10 mg/kg-day; in the data set with Rattus norvegicus [1] (setting [3]), 1 mg/kg-day. In addition, the NOAEL came to 50 mg/kg-day in the data set on Oryctolagus sp. (developmental, duration: 13 days, oral, gavage, New Zealand) and 50 mg/kg-day in the data set on Oryctolagus sp. (reproduction developmental, duration: 13 days, oral, gavage, F, New Zealand). The same molecule had an LOAEL with Rattus norvegicus [1] (setting [3]) of 10 mg/kg-day.
Regarding `CCCCCCCCC=O` [Nonanal], the LD50 was more than 5000 mg/kg with Rattus norvegicus [1] (oral, gavage, Wistar) and more than 5000 mg/kg with Oryctolagus sp. (dermal, albino).
Consider `CCN(CC)C(=S)SSC(=S)N(CC)CC` [Tetraethylthiuram disulfide], for which the LD50 is 4570 mg/kg and > 5200 mg/kg and 7070 mg/kg in the data set with Rattus norvegicus [1] (oral, gavage, Sprague-Dawley); more than 2000 mg/kg in the data set with Oryctolagus sp. (dermal, occlusive, New Zealand). In addition, the NOAEL in the data set on Rattus norvegicus [1] (reproduction developmental, duration: 19 days, oral, gavage, F, Sprague-Dawley) is more than 250 mg/kg-day; with Mus musculus (reproduction developmental, duration: 6 days, oral, gavage, CD1, generation: F1), more than 4900 mg/kg-day.
`Cc1ccc(OP(=O)(Oc2ccc(C)cc2C)Oc2ccc(C)cc2C)c(C)c1` [Trixylyl phosphate]: the LD50 in the data set with Rattus norvegicus [1] (oral, gavage, Sprague-Dawley) is more than 20000 mg/kg; in the data set on Oryctolagus sp. (dermal, New Zealand), more than 2000 mg/kg.

These data come from EPA's ToxValDB 9.5.
